Measurements published in PubChem BioAssay (NCI).
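Test compounds were applied to cells in 96-well plates for 48 hours at 5 doses. GI50: concentration for 50% inhibition of growth. Definition used: TGI = concentration required for complete inhibition of growth.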

How the values were obtained:
Experiment in all cases: DTP human tumour cell line panel, 48 h
[1] = tested on: 786-0 renal
[2] = tested on: A498 renal
[3] = tested on: A549 NSCLC
[4] = tested on: ACHN renal
[5] = tested on: BT-549 breast
[6] = tested on: CAKI-1 renal
[7] = tested on: CCRF-CEM leukemia
[8] = tested on: COLO 205 colon
[9] = tested on: DU-145 prostate
[10] = tested on: EKVX NSCLC
[11] = tested on: HCC-2998 colon
[12] = tested on: HCT-116 colon
[13] = tested on: HCT-15 colon
[14] = tested on: HL-60(TB) leukemia
[15] = tested on: HOP-62 NSCLC
[16] = tested on: HOP-92 NSCLC
[17] = tested on: HS 578T breast
[18] = tested on: HT29 colon
[19] = tested on: IGROV1 ovarian
[20] = tested on: K-562 leukemia
[21] = tested on: KM12 colon
[22] = tested on: LOX IMVI melanoma
[23] = tested on: M14 melanoma
[24] = tested on: MALME-3M melanoma
[25] = tested on: MCF7 breast
[26] = tested on: MDA-MB-231 breast
[27] = tested on: MDA-MB-435
[28] = tested on: MDA-MB-468 breast
[29] = tested on: MOLT-4 leukemia
[30] = tested on: NCI-H226 lung
[31] = tested on: NCI-H23 lung
[32] = tested on: NCI-H460 lung
[33] = tested on: NCI-H522 lung
[34] = tested on: OVCAR-3 ovarian
[35] = tested on: OVCAR-4 ovarian
[36] = tested on: OVCAR-5 ovarian
[37] = tested on: OVCAR-8 ovarian
[38] = tested on: PC-3 prostate
[39] = tested on: RPMI-8226 leukemia
[40] = tested on: RXF 393 renal
[41] = tested on: SF-268 CNS
[42] = tested on: SF-295 CNS
[43] = tested on: SF-539 CNS
[44] = tested on: SK-MEL-28 melanoma
[45] = tested on: SK-MEL-5 melanoma
[46] = tested on: SK-OV-3 ovarian
[47] = tested on: SN12C renal
[48] = tested on: SNB-19 CNS
[49] = tested on: SNB-75 CNS
[50] = tested on: SR leukemia
[51] = tested on: SW-620 colon
[52] = tested on: T-47D breast
[53] = tested on: TK-10 renal
[54] = tested on: U251 CNS
[55] = tested on: UACC-257 melanoma
[56] = tested on: UACC-62 melanoma
[57] = tested on: UO-31 renal
[58] = tested on: NCI/ADR-RES ovarian
[59] = tested on: SK-MEL-2 melanoma

## Cc1cccc(NC(=O)[C@]23CCC(C)(C)CC2C2=CCC4[C@@]5(C)C[C@@H](O)[C@H](O)[C@@](C)(CO)C5CC[C@@]4(C)[C@]2(C)CC3)c1 (some centres not stated)
[1]
  GI50: 14.6 µM
  TGI: 29.4 µM
[2]
  GI50: 15.7 µM
  TGI: 29.4 µM
[3]
  GI50: 22.2 µM
  TGI: > 100 µM
[4]
  GI50: 12.4 µM
  TGI: 24.9 µM
[5]
  GI50: 14.3 µM
  TGI: 27.8 µM
[6]
  GI50: 6.63 µM
  TGI: 21.9 µM
[7]
  GI50: 9.29 µM
  TGI: 35.1 µM
[8]
  GI50: 13.6 µM
  TGI: 29.1 µM
[9]
  GI50: 16.5 µM
  TGI: 39.1 µM
[10]
  GI50: 12.8 µM
  TGI: 29.1 µM
[11]
  GI50: 13 µM
  TGI: 26.2 µM
[12]
  GI50: 10.7 µM
  TGI: 22.5 µM
[13]
  GI50: 10.8 µM
  TGI: 23.4 µM
[14]
  GI50: 15.2 µM
  TGI: 55.9 µM
[15]
  GI50: 14.9 µM
  TGI: 29.4 µM
[16]
  GI50: 8.64 µM
  TGI: 23.1 µM
[17]
  GI50: 12.8 µM
  TGI: 50.8 µM
[18]
  GI50: 13.1 µM
  TGI: 27 µM
[19]
  GI50: 12.2 µM
  TGI: 25.4 µM
[20]
  GI50: 14.5 µM
  TGI: 60.5 µM
[21]
  GI50: 14.1 µM
  TGI: 30.8 µM
[22]
  GI50: 12.8 µM
  TGI: 27.8 µM
[23]
  GI50: 13.7 µM
  TGI: 27.3 µM
[24]
  GI50: 14.7 µM
  TGI: 28.3 µM
[25]
  GI50: 5.71 µM
  TGI: 19.2 µM
[26]
  GI50: 13.8 µM
  TGI: 28.1 µM
[27]
  GI50: 13.3 µM
  TGI: 26.5 µM
[28]
  GI50: 5.17 µM
  TGI: 20.4 µM
[29]
  GI50: 7.87 µM
  TGI: 52 µM
[30]
  GI50: 10.4 µM
  TGI: 22.9 µM
[31]
  GI50: 14.6 µM
  TGI: 28.8 µM
[32]
  GI50: 12.5 µM
  TGI: 25.6 µM
[33]
  GI50: 14.6 µM
  TGI: 28.9 µM
[34]
  GI50: 14 µM
  TGI: 28 µM
[35]
  GI50: 11.5 µM
  TGI: 25.2 µM
[36]
  GI50: 13.3 µM
  TGI: 26.4 µM
[37]
  GI50: 18.5 µM
  TGI: 60.2 µM
[38]
  GI50: 5.16 µM
  TGI: 20.5 µM
[39]
  GI50: 6.25 µM
  TGI: 32 µM
[40]
  GI50: 3.77 µM
  TGI: 17 µM
[41]
  GI50: 14.1 µM
  TGI: 42.3 µM
[42]
  GI50: 10 µM
  TGI: 22.5 µM
[43]
  GI50: 13.9 µM
  TGI: 28 µM
[44]
  GI50: 13.3 µM
  TGI: 26.5 µM
[45]
  GI50: 11.9 µM
  TGI: 24.3 µM
[46]
  GI50: 14.5 µM
  TGI: 34.6 µM
[47]
  GI50: 12.6 µM
  TGI: 25.5 µM
[48]
  GI50: 18.4 µM
  TGI: 47.4 µM
[49]
  GI50: 6.02 µM
  TGI: 39.1 µM
[50]
  GI50: 16.7 µM
  TGI: > 100 µM
[51]
  GI50: 15 µM
  TGI: 29.7 µM
[52]
  GI50: 7.45 µM
  TGI: 20.7 µM
[53]
  GI50: 16.5 µM
  TGI: 35.8 µM
[54]
  GI50: 14.9 µM
  TGI: 30.1 µM
[55]
  GI50: 15.3 µM
  TGI: 31.5 µM
[56]
  GI50: 11.3 µM
  TGI: 23.7 µM
[57]
  GI50: 7.07 µM
  TGI: 20.3 µM

## CC1(C)CC[C@]2(C(=O)O)CC[C@]3(C)C(=CCC4[C@@]5(C)C[C@@H](O)[C@@H]6OC(c7ccccc7Br)OC[C@@]6(C)C5CC[C@]43C)C2C1 (some centres not stated)
[1]
  GI50: 3.61 µM
  TGI: 15.3 µM
[2]
  GI50: 3.28 µM
  TGI: 12.6 µM
[3]
  GI50: 2.11 µM
  TGI: 50.1 µM
[4]
  GI50: 2.53 µM
  TGI: 18.7 µM
[5]
  GI50: 3.11 µM
  TGI: 13.1 µM
[6]
  GI50: 3.16 µM
  TGI: > 100 µM
[7]
  GI50: 3.26 µM
  TGI: 35.4 µM
[8]
  GI50: 1.99 µM
  TGI: 4.89 µM
[9]
  GI50: 3.71 µM
  TGI: > 100 µM
[10]
  GI50: 2.68 µM
  TGI: 36.5 µM
[11]
  GI50: 3.63 µM
  TGI: 20.8 µM
[12]
  GI50: 2.65 µM
  TGI: 11.1 µM
[13]
  GI50: 2.21 µM
  TGI: 12.9 µM
[14]
  GI50: 2.57 µM
  TGI: 9.75 µM
[15]
  GI50: 3.9 µM
  TGI: 22.4 µM
[16]
  GI50: 4.72 µM
  TGI: 37.1 µM
[17]
  GI50: 2.82 µM
  TGI: 14.9 µM
[18]
  GI50: 3.42 µM
  TGI: 16.7 µM
[19]
  GI50: 4.53 µM
  TGI: 30.1 µM
[20]
  GI50: 2.68 µM
  TGI: > 100 µM
[21]
  GI50: 3.91 µM
  TGI: 26.2 µM
[22]
  GI50: 3.49 µM
  TGI: 13.9 µM
[23]
  GI50: 3.88 µM
  TGI: 17.7 µM
[24]
  GI50: 3.78 µM
  TGI: 19.3 µM
[25]
  GI50: 3.29 µM
  TGI: > 100 µM
[26]
  GI50: 4.01 µM
  TGI: 21.9 µM
[27]
  GI50: 3.95 µM
  TGI: 23.5 µM
[28]
  GI50: 2.83 µM
  TGI: 20.7 µM
[29]
  GI50: 2.67 µM
  TGI: 23.4 µM
[30]
  GI50: 3.52 µM
  TGI: 34.9 µM
[31]
  GI50: 3.72 µM
  TGI: 43.7 µM
[32]
  GI50: 2.51 µM
  TGI: 9.77 µM
[33]
  GI50: 3.45 µM
  TGI: 78.4 µM
[58]
  GI50: 3.17 µM
  TGI: > 100 µM
[34]
  GI50: 2.99 µM
  TGI: 12.7 µM
[35]
  GI50: 3.61 µM
  TGI: > 100 µM
[36]
  GI50: 4.08 µM
  TGI: 25 µM
[37]
  GI50: 3.48 µM
  TGI: > 100 µM
[38]
  GI50: 3.99 µM
  TGI: > 100 µM
[39]
  GI50: 2.66 µM
  TGI: 71.8 µM
[40]
  GI50: 4.37 µM
  TGI: 8.95 µM
[41]
  GI50: 3.45 µM
  TGI: > 100 µM
[42]
  GI50: 2.79 µM
  TGI: 18.8 µM
[43]
  GI50: 3.59 µM
  TGI: 12.8 µM
[59]
  GI50: 4.03 µM
  TGI: 20.7 µM
[44]
  GI50: 4.69 µM
  TGI: 37.2 µM
[45]
  GI50: 3.6 µM
  TGI: 13.9 µM
[46]
  GI50: 3.8 µM
  TGI: 44.1 µM
[47]
  GI50: 3.14 µM
  TGI: 17.6 µM
[48]
  GI50: 3.82 µM
  TGI: > 100 µM
[49]
  GI50: 2.44 µM
  TGI: > 100 µM
[50]
  GI50: 4.15 µM
  TGI: > 100 µM
[51]
  GI50: 3.43 µM
  TGI: 30.9 µM
[52]
  GI50: 3.46 µM
  TGI: > 100 µM
[53]
  GI50: 4.55 µM
  TGI: > 100 µM
[54]
  GI50: 3.08 µM
  TGI: 14.3 µM
[55]
  GI50: 4.12 µM
  TGI: 30.9 µM
[56]
  GI50: 4.8 µM
  TGI: 24.8 µM
[57]
  GI50: 2.68 µM
  TGI: 12.4 µM
